Test results reported in patent US6825197B2, “Cyclic GMP-specific phosphodiesterase inhibitors” (Lilly ICOS LLC, priority 2000, dated 2004).
pIC50: −log10 of the molar value.

What was measured:
[1] = target: T1, recombinant human PDE5 (Homo sapiens, UniProt O76074); experiment: Inhibitory effect on cGMP-PDE (PDE5 inhibition, one-step assay); assay type: biochemical; details: in vitro test; human recombinant PDE5, 0.15 μM 8-[H3]-cGMP, 30 minutes incubation; read-out: IC50 values versus PDE5
T1 construct: host or cells: Saccharomyces cerevisiae strain BJ2-54 (ATCC 74465), described as an exemplary method
Method: The compounds of structural formula (I) were tested for an ability to inhibit PDE5. The ability of a compound to inhibit PDE5 activity is related to the IC50 value for the compound, i.e., the concentration of inhibitor required for 50% inhibition of enzyme activity. The IC50 value for compounds of structural formula (I) were determined using recombinant human PDE5.
The production of recombinant human PDEs and the IC50 determinations can be accomplished by well-known methods in the art. Exemplary methods are described as follows:
Phosphodiesterase activity of the preparations was determined as follows. PDE assays utilizing a charcoal separation technique were performed essentially as described in Loughney et al. (1996). […] The [32P]5′-AMP or [32P]5′-GMP then was quantitatively converted to free [32P] phosphate and unlabeled adenosine or guanosine by the action of snake venom 5′-nucleotidase. […] PDE enzyme was present in quantities that yield <30% total hydrolysis of substrate (linear assay conditions). […] After centrifugation (750×g for 3 minutes) to sediment the charcoal, a sample of the supernatant was taken for radioactivity determination in a scintillation counter and the PDE activity was calculated.
cGMP-PDE activity of compounds of the present invention was measured using a one-step assay adapted from Wells et al., Biochim. […]

Row | SMILES | pIC50 [1] | melting point
1 | COc1ccc(CC(=O)N2CCN3C(=O)[C@H]4Cc5c([nH]c6ccccc56)[C@@H](c5ccc6c(c5)OCO6)N4C(=O)C3C2)cc1OC (stereo partly drawn) [Example 3, (5aR,12R)-12-Benzo(1,3)dioxol-5-yl-9-[2-(3,4-dimethoxyphenyl)ethanoyl]-5,5a,8,9, 10, 10a,12,13-octahydro-7H-6a,9,11a,13-tetraaza-indeno[1,2-b]anthracene-6,11-dione] | 8.41 | 284 to 289 °C
2 | O=C1[C@H]2Cc3c([nH]c4ccccc34)[C@@H](c3ccc4c(c3)OCO4)N2C(=O)C2CNCCN12 (mixture of isomers) [Example 1, (5aR,12R)-12-Benzo(1,3)dioxol-5-yl-5,5a,8,9,10,10a,12,13-octahydro-7H-6a,9,11a,13-tetraza-indeno[1,2-b]anthracene-6,11-dione] | 8.77 | 226 to 237 °C
